Data from patent publication US7083918B2, “Bacterial small-molecule three-hybrid system” (The Trustees of Columbia University in the City of New York, priority 2002, dated 2006).

Assays:
[1] = system: λcI-FKBP12 and αNTD-DHFR fusion proteins (lacZ reporter gene in E. coli strain V674E); experiment: liquid lacZ (ONPG) β-galactosidase assay, bacterial three-hybrid system; format: cell-based; details: for effect of unlinked ligand on the levels of transcription in the three-hybrid system: control without Mtx-SLF (FIG. 4)
Description: The levels of small-molecule induced transcriptional activation were quantified using liquid lacZ assays. The strains here correspond exactly to those in FIG. 2 and are used in liquid ONPG assays where the levels of transcriptional activation can be quantitated based on the amount of reporter protein, b-galactosidase, which is produced. The strains are V674E bearing plasmids encoding λcI and αNTD fusion proteins: 1, λcI-Gal4, αNTD-Gal11^P; 2, λcI, αNTD; 3, λcI-FKBP12, αNTD; 4, λcI-FKBP12, αNTD-DHFR; 5, λcI, αNTD-DHFR. The strains were assayed in triplicate from three transformants and standard deviations are shown. The strains are grown in LB with 0.5 mM IPTG, 100 μg/mL ampicillin, 6 μg/mL chloramphenicol, and small molecules at the indicated concentration. […] The last two small-molecule concentrations are competition assays in which an excess of one of the ligands for the receptor proteins was used to compete out the positive signal due to the three-hybrid system.
The strains are V674E expressing the following λcI and αNTD fusion proteins: (♦), λcI-Gal4, αNTD-Gal11^P (a direct protein-protein interaction); (▬), λcI-FKBP12, αNTD (a negative control); and (▴), λcI-FKBP12, αNTD-DHFR (the three-hybrid system). […] The standard deviation for each data point is also shown.
For the liquid assays, the strains were incubated overnight in LB liquid media containing 100 μg/mL ampicillin, 6 μg/mL chloramphenicol, and 0.5 mM IPTG overnight. These cultures were used to innoculate 1000 fold into LB liquid media containing 100 μg/mL ampicillin, 6 μg/mL chloramphenicol, 0.5 mM IPTG, and small molecule (per concentration indicated in each experiment) and grown to a final OD600 of 0.4-0.6 in a 37° C. shaker which took about 5 hours. No tPEG is used in the liquid assays in order to get a true quantization of the transcription. Then, the protocol from Miller was followed exactly using 0.1 mL cell lysate for the assay (35).

[2] = system: E. coli cells; experiment: toxicity to E. coli cells in three-hybrid experiments; format: cell-based; details: at the low concentrations of Mtx-SLF required for the three-hybrid experiments; tolC^− strain
Procedure: The next step was the construction of the E. coli strain expressing the λcI-FKBP12 and (NTD-DHFR fusion proteins and containing the lacZ reporter construct. Plasmids encoding the λcI-FKBP12 and αNTD-DHFR chimeras were prepared from vectors pACλcI32 and pBRαLN using standard molecular biology techniques (8). The same synthetic lacZ reporter, placOR2-62, as initially reported by the Hochschild lab was used. The reporter placOR2-62 is maintained in one copy in the chromosome as a prophage and encodes the lacZ gene 62 bp downstream from the λcI operator (FIG. 1) (16). Based on previous results from Kopytek and Hu showing that tolC^− and thyA^− mutations improved the viability and tolerance of E. coli to Mtx-based molecules, we expected export as well as toxicity of Mtx-SLF to be problematic in E. coli (32). Thus, we modified the original Hochschild strain KS1 to be tolC^− in order to decrease active export of our small molecule. […] We introduced the tolC^− mutation into KS1 via a P1vir transduction from strain SK037 (32). We call this test strain V674E. Transformation of the plasmids bearing the various λcI and αNTD fusion proteins into V674E yielded the final experimental strains.
These X-gal plate results were confirmed using more quantitative liquid β-galactosidase assays. The liquid assays were carried out essentially as originally described by Miller (35). […]

[3] = target: FKBP12 (Homo sapiens, UniProt P62942); details: cited from earlier work
Chain of FKBP12 (P62942 whole entry): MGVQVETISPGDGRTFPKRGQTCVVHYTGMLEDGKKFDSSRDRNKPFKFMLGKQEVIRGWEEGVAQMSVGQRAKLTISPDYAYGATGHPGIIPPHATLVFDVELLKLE

[4] = system: tolC^− strains; experiment: growth and viability of tolC- strains on antibiotic; format: cell-based, E. coli
Procedure: Electrocompetent cells of strain V674E were made by standard methods (35); however, the transformation efficiency of this strain is low (10^6–10^7) due to the tolC^− mutation. Using standard methods, both the pACλcI32 and the pBRαLN plasmids or appropriate derivatives were transformed into the strain. Transformants were grown on LB with 100 μg/mL ampicillin and 6 μg/mL chloramphenicol. […] In addition MacConkey plates can't be used because MacConkey media is toxic to strains bearing a tolC^− mutation.

**Q.** With `CN(Cc1cnc2nc(N)nc(N)c2n1)c1ccc(C(=O)N[C@@H](CCC(=O)O)C(=O)O)cc1` [Mtx, methotrexate] as the compound, how does the “effect of unlinked ligand on the levels of transcription in the three-hybrid system” value [1] read?
**A.** Neither Mtx, SLF, nor a combination of the two affects the levels of transcription

**Q.** And the “toxicity in E. coli (need for thyA^− mutation)” value [2]?
**A.** not sufficiently toxic

**Q.** Which “affinity for FKBP12” value [3] does the source give for `CCC(C)(C)C(=O)C(=O)N1CCCCC1C(=O)OC(CCc1ccc(OC)c(OC)c1)c1cccc(OCC(=O)O)c1` (stereo not drawn) [SLF] here?
**A.** nanomolar affinity

**Q.** What about the “effect of unlinked ligand on the levels of transcription in the three-hybrid system” value [1] of the same compound?
**A.** Neither Mtx, SLF, nor a combination of the two affects the levels of transcription

**Q.** With `CCC(C)(C)C(=O)C(=O)N1CCCCC1C(=O)OC(CCc1ccc(OC)c(OC)c1)c1cccc(OCC(=O)OC(C)(C)C)c1` (stereo not drawn) [tert-butyl ester of SLF] as the compound, how does the “levels of transcription with competitor relative to 1 μM Mtx-SLF alone” value ([1]; competition: 1 μM Mtx-SLF plus 10-fold excess of competitor) read?
**A.** about half

**Q.** With `O=C(N[C@H](CO)[C@H](O)c1ccc([N+](=O)[O-])cc1)C(Cl)Cl` [Chloramphenicol] as the compound, how does the “levels that significantly impair growth and viability of tolC^− strains” value [4] read?
**A.** above 8 μg/mL
